In ChEMBL document CHEMBL1147974, “Metabolic activation of indole-containing prostaglandin D2 receptor 1 antagonists: impacts of glutathione trapping and glucuronide conjugation on covalent binding” (Bioorg Med Chem Lett, 2007) one finds Activity data, which are given here for three molecules.

Data set [1] relates to Liver microsomes. As to the kind of experiment: Covalent binding in rat liver microsomes at 10 uM after 1 hr. The class given is ADME, Microsome. A general note: Microsomes from liver hold many membrane-bound enzymes, among them those of drug oxidation.
The subject of data set [2] is Liver microsomes. Nature of the data set: Covalent binding in human liver microsomes at 10 uM after 1 hr. The class given is ADME, Microsome.
The subject of data set [3] is Liver microsomes. Nature of the data set: Covalent binding in rat liver microsomes after 60 mins assessed as GSH adduct formation. It counts as ADME, Microsome. The following applies: 1 h.
Data set [4] relates to Liver microsomes. As to the kind of experiment: Covalent binding in human liver microsomes after 60 mins assessed as GSH adduct formation. It counts as ADME, Microsome. The following applies: 1 h.
For data set [5], the system named is Hepatocyte. Nature of the data set: Covalent binding in rat hepatocytes at 10 uM after 1 hr. The class given is ADME, cell-based.
The subject of data set [6] is Hepatocyte. Nature of the data set: Covalent binding in human hepatocytes at 10 uM after 1 hr. It counts as ADME, cell-based.

For the molecule `CC(=O)c1cc(F)cc2c3c(n(Cc4ccc(Cl)cc4)c12)[C@@H](CC(=O)O)CC3`, the Activity in data set [1] is on record as 290 pmol/mg; in data set [2] it was 46 pmol/mg; in data set [3], 41%; in data set [4], 15%; in data set [5] it was 45 pmol/mg; in data set [6] it was 16 pmol/mg.
As to `CC(=O)c1cc(S(C)(=O)=O)cc2c3c(n(Cc4ccc(Cl)cc4)c12)[C@@H](CC(=O)O)CC3`, the Activity in data set [1] is reported as 23 pmol/mg; in data set [2], 18 pmol/mg; in data set [3], under 0.5%; in data set [4], under 0.5%; in data set [5], 8 pmol/mg; in data set [6] it was 5 pmol/mg.
On to `O=C(O)C[C@H]1CCc2c1n(Cc1ccc(Cl)cc1)c1c(Br)cc(F)cc21`, for which the Activity in data set [1] is on record as 460 pmol/mg; in data set [2], 33 pmol/mg; in data set [3], 22%; in data set [4], 5%; in data set [5], 74 pmol/mg; in data set [6], 33 pmol/mg.
